“And” between values parts separate entries of the source, which are not always exact repeats. Identical values can stand only once.

This passage reports ΔTm results from ChEMBL document CHEMBL5308504, “Tm Shift (DSF) assay results for EUbOPEN Chemogenomics Library” (2023).

The target of assay [1] is T1, Peregrin (Homo sapiens) (UniProt P55201).
T1 sequence (whole entry): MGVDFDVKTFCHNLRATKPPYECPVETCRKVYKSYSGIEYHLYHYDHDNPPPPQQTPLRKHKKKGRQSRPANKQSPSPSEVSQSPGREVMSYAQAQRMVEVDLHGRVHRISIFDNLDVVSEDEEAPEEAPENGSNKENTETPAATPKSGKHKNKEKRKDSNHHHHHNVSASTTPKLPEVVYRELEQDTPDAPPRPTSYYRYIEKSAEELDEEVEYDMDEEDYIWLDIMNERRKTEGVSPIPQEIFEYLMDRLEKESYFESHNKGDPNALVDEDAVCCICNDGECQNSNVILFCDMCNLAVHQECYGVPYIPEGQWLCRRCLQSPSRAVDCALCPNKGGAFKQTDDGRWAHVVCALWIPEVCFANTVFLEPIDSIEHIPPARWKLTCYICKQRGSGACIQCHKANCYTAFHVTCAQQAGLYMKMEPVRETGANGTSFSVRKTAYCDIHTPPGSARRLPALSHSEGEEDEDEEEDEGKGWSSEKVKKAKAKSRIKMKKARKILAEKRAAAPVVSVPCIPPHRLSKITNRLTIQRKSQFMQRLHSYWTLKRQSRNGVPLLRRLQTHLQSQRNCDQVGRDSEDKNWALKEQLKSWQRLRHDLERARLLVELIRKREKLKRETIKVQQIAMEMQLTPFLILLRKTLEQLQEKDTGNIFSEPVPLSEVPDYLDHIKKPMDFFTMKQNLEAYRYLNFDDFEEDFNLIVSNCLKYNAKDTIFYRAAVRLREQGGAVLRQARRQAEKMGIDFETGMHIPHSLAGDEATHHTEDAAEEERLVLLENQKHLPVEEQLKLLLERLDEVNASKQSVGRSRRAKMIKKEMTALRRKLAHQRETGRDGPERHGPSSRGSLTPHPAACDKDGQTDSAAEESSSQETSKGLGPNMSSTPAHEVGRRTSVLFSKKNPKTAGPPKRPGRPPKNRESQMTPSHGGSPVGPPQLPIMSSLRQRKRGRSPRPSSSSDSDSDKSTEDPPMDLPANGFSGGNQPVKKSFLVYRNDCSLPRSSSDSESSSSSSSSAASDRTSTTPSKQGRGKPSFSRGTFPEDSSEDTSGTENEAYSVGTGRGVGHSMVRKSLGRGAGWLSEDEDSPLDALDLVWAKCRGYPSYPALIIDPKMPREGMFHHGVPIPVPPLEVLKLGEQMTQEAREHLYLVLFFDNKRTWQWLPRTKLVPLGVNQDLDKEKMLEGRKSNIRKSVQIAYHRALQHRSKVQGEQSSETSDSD
The following applies: Compound concentration 20.0 uM, Protein concentration 2.0 uM, Result type QC Liability.

The target in assay [2] is Fibroblast growth factor receptor 3 (Homo sapiens) (UniProt P22607). The following applies: Compound concentration 20.0 uM, Protein concentration 2.0 uM, Result type QC Liability.
Sequence of Fibroblast growth factor receptor 3 (Homo sapiens) (P22607 23-806 limits assumed): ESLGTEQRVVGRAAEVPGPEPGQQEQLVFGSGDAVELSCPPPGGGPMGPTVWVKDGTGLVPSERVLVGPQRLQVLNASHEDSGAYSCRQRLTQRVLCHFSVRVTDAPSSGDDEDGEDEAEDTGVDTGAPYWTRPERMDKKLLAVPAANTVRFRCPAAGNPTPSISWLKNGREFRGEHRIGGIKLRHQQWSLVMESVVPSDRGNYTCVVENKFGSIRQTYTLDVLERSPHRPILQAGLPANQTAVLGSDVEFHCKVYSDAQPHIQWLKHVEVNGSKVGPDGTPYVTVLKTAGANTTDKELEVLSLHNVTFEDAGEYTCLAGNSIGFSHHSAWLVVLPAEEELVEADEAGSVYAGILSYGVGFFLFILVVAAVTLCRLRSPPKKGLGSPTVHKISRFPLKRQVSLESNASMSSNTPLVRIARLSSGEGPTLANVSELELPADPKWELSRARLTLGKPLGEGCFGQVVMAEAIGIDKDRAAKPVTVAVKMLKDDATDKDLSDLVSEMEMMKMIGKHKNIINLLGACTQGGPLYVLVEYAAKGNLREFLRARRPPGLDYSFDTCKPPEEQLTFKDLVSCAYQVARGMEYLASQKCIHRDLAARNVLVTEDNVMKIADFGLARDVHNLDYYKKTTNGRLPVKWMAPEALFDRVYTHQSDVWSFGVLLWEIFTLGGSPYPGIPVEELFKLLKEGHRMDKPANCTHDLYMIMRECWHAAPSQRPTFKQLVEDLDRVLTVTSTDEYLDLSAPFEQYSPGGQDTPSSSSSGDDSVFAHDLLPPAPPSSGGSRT

For the compound `NC1(c2ccc(-c3nc4c(O)ccnn4c3-c3ccccc3)cc2)CCC1`, the values for the shift in melting temperature (ΔTm) in assay [1] and in assay [2] were 0.22 °C and 0.79 °C, respectively.

Regarding `CCOP(=O)(OCC)C(=Cc1cc(C(C)(C)C)c(O)c(C(C)(C)C)c1)P(=O)(OCC)OCC`, the ΔTm in assay [1] is -1.65 °C; in assay [2], 0.83 °C.

With `C[C@H](NC(=O)c1cc(Cl)ccc1Oc1ccc(F)cc1)c1ccc(C(=O)O)cc1`, the ΔTm in assay [1] is -3.01 °C; in assay [2], 0.47 °C.

Regarding `Cc1c(N2CCNCC2)nc2ccc(Br)cc2c1C(=O)NC[C@H](CCC(=O)O)c1ccccc1Cl`, the ΔTm in assay [1] is -2.38 °C; in assay [2], 0.57 °C.

On to `CCN(C(=O)CO)[C@H]1CN(/C(=N\C#N)Nc2cccc(OC(F)F)c2)N=C1c1ccc(Cl)c(Cl)c1`, for which the ΔTm was -1.11 °C in assay [1] and 0.47 °C in assay [2].

`c1ccc2c(-c3coc4cc(-c5ccc(N6CCNCC6)cc5)cnc34)ccnc2c1`: the ΔTm was -2.26 °C in assay [1] and 1.12 °C in assay [2].

In the case of `COc1cc2c(NC3CCN(C(C)C)CC3)nc(C3CCCCC3)nc2cc1OCCCN1CCCC1`, the ΔTm in assay [1] was -0.55 °C; in assay [2], 0.95 °C.

For `CSc1nc2c(c(=O)n(C)c(=O)n2C)n1C`, the results for the ΔTm in assay [1] and in assay [2] were -2.2 °C and 0.45 °C, respectively.

For `C=CC(=O)Nc1ccc(C(=O)Nc2[nH]nc3c2CN(C(=O)N[C@H](CN(C)C)c2ccccc2)C3(C)C)cc1`, the ΔTm in assay [1] is -0.82 °C; in assay [2], 7.32 °C.

Consider `COc1ccc(-n2nc(C(F)(F)F)cc2-c2ccc(Cl)cc2)cc1`, for which the ΔTm is -3.19 °C in assay [1] and 0.81 °C in assay [2].

Regarding `CC/C(=C(\c1ccccc1)c1ccc(OCCN(C)C)cc1)c1ccccc1`, the ΔTm was -3.71 °C in assay [1] and 0.3 °C in assay [2].

`Cc1ccc(-n2nc(C(C)(C)C)cc2NC(=O)Nc2ccc(OCCN3CCOCC3)c3ccccc23)cc1`: the ΔTm is -3.09 °C and -0.42 °C in assay [1]; 3.18 °C and 3.23 °C in assay [2].

For the compound `CCc1ccc(-c2ncn(CC3(F)CCN(C)CC3)c2-c2ccnc3[nH]ccc23)nc1`, the values for the shift in melting temperature (ΔTm) in assay [1] and in assay [2] were -1.47 °C and 0.58 °C, respectively.

Take `CC(C)S(=O)(=O)c1ccccc1Nc1nc(N[C@@H]2CCCN(CCCCCCCNC(=O)COc3cccc4c3C(=O)N(C3CCC(=O)N(C)C3=O)C4=O)C2)ncc1Cl` (stereo partly drawn): the results for the ΔTm in assay [1] and in assay [2] were -2.55 °C and 8.15 °C, respectively.

For `CC1CCN(c2ccnc(NCc3cn(C)cn3)n2)CC1`, the values for the ΔTm in assay [1] and in assay [2] were -2.32 °C and 0.69 °C, respectively.

`CC(C)c1cnc(NC(=O)Cc2ccccc2)s1`: the ΔTm in assay [1] was found to be 0.11 °C; in assay [2] it was 0.87 °C.

On to `COc1cc2ncnc(Nc3ccc4c(cnn4Cc4ccccc4)c3)c2cc1OC`, for which the values for the ΔTm in assay [1] and in assay [2] were -1.65 °C and 1.75 °C, respectively.

`O=C1Nc2nc(-c3c(O)cccc3OCC3CC3)cc([C@@H]3CCCNC3)c2CO1`: the ΔTm is -2.51 °C in assay [1] and 1.04 °C in assay [2].

In the case of `CS(=O)(=O)NCC[C@H](NC(=O)c1cncc2c1cnn2-c1ccc(F)cc1)c1ccnc(S(C)(=O)=O)c1`, the values for the ΔTm in assay [1] and in assay [2] were -1.91 °C and 0.62 °C, respectively.

For `CCc1cc2c(cc1N1CCC(N3CCOCC3)CC1)C(C)(C)c1[nH]c3cc(C#N)ccc3c1C2=O`, the results for the ΔTm in assay [1] and in assay [2] were -1 °C and 0.56 °C, respectively.

With `NC(=O)c1sc2nc(N3CCC(NC[C@H](O)c4ccccn4)CC3)cc(C(F)(F)F)c2c1N`, the ΔTm in assay [1] is -0.86 °C; in assay [2], 1.99 °C.

As for `N#CC[C@H](C1CCCC1)n1cc(-c2ncnc3[nH]ccc23)cn1`, the thermal shift (ΔTm) is 0.48 °C in assay [1] and 3.43 °C in assay [2].

With `CN(C)[C@H]1CCN(c2cc(C(F)(F)F)c(C#N)c(Nc3cccc(CCC(=O)O)c3)n2)C1`, the ΔTm in assay [1] was -2.19 °C; in assay [2], 1 °C.

Take `CC1(C)Oc2ncnc(N)c2N=C1c1ccc([C@H]2CC[C@H](CC(=O)O)CC2)cc1`: the ΔTm is -2.72 °C in assay [1] and 0.43 °C in assay [2].

With `CC1CCN(C(=O)[C@H](CCn2cccc2C#N)NS(=O)(=O)c2cccc3[nH]ccc23)CC1`, the ΔTm in assay [1] is -2.12 °C; in assay [2], 0.35 °C.

Consider `CCN1C(=O)N(c2c(F)c(OC)cc(OC)c2F)Cc2cnc3[nH]c(CN4CCOCC4)cc3c21`, for which the values for the ΔTm in assay [1] and in assay [2] were -0.68 °C and 11.8 °C, respectively.

As for `COCCN1CCN(CCn2ccc(Nc3ncc4c(n3)-c3c(nn(C)c3-c3ccccc3)C[C@H]4C)n2)CC1`, the ΔTm in assay [1] is -0.48 °C; in assay [2], 3.58 °C.

In the case of `CCC(C(=O)Nc1ccc(-c2cc3ccccc3s2)c(C(N)=O)c1)c1nccs1` (stereo not drawn), the shift in melting temperature (ΔTm) was -1.09 °C in assay [1] and 0.48 °C in assay [2].

As to `CC(C)Nc1ncnc2cc(OCc3cccc([S@@](C)(=N)=O)c3)c(Br)cc12`, the ΔTm is -2.23 °C in assay [1] and 1.64 °C in assay [2].

Regarding `C[C@@H](Oc1cc(-n2cnc3ccc(OC4CCN(C)CC4)cc32)sc1C(N)=O)c1ccccc1Cl`, the results for the ΔTm in assay [1] and in assay [2] were 0.36 °C and 3.37 °C, respectively.

Turning to `CC(C)(O)CNC(=O)N1C(=O)N(c2cccc(C(F)(F)F)c2)C2=C(C(=O)CC2)[C@@H]1c1ccc(C#N)cc1`, the shift in melting temperature (ΔTm) in assay [1] was -2.73 °C; in assay [2], 0.55 °C.

`Cc1cc(=O)oc2cc(NC(=O)[C@H](Cc3ccc(I)cc3)NC(=O)[C@H]3N[C@@H]4CC[C@H]3C4)ccc12`: the values for the ΔTm in assay [1] and in assay [2] were -1.46 °C and 0.37 °C, respectively.

In the case of `O=C(CCCN1CCC(O)(c2ccc(Cl)cc2)CC1)c1ccc(F)cc1`, the ΔTm in assay [1] is -1.6 °C; in assay [2], 0.59 °C.

As for `CC(C)(O)c1cn(-c2ccc(-c3cccc(S(C)(=O)=O)c3)cc2)c(C(C)(C)c2ccccc2Cl)n1`, the ΔTm is -1.46 °C in assay [1] and -2.28 °C in assay [2].

Turning to `Cn1c(C2(NC(=O)c3ccc4c(C5CCCC5)c(-c5ncc(Br)cn5)n(C)c4c3)CCC2)nc2ccc(/C=C/C(=O)O)cc21`, the ΔTm in assay [1] was -4.81 °C and -4.1 °C; in assay [2] it was -0.02 °C and -0.48 °C.

For the compound `CNC(=O)c1cc(C(=O)N[C@H]2[C@@H]3COC[C@@H]32)cc2c1O[C@H](CF)[C@H]2c1ccccc1`, the ΔTm in assay [1] was -0.69 °C; in assay [2], 0.65 °C.

With `COCCCS(=O)(=O)c1cc(C)c(-c2ccc(F)c3c2CC[C@H]3Oc2ccc3c(c2)OC[C@H]3CC(=O)O)c(C)c1`, the figures for the ΔTm in assay [1] and in assay [2] were -4.61 °C and 0.81 °C, respectively.

As to `C[C@@H]1CN(CC(=O)N2CC(C)(C)c3nc(CO)c(Cc4ccc(F)cc4)cc32)[C@@H](CN2CCOC[C@H]2C)CN1`, the ΔTm in assay [1] is -2.93 °C; in assay [2], 0.45 °C.

For `NCc1ccc(OCCCc2sc(-c3ccc4c(c3)/C(=N/Nc3nc5ccccc5s3)CCC4)nc2C(=O)O)cc1`, the ΔTm in assay [1] is -3.06 °C; in assay [2] it was 0.58 °C.

As for `C=CC(=O)Nc1ccc2[nH]c(=O)n(C3CCN(Cc4ccc(-c5ccc6c(c5)NC(=O)CO6)cc4)CC3)c2c1`, the figures for the thermal shift (ΔTm) in assay [1] and in assay [2] were -0.12 °C and 0.37 °C, respectively.

As for `C[C@]12CC[C@@H]3c4ccc(C(N)=O)cc4CC[C@H]3[C@@H]1CC=C2c1cncc(F)c1`, the ΔTm in assay [1] is -4.27 °C; in assay [2] it was 0.92 °C.

For `NS(=O)(=O)c1ccc(Nc2nc(OCC3CCCCC3)c3nc[nH]c3n2)cc1`, the ΔTm in assay [1] was found to be 1.2 °C; in assay [2], 0.37 °C.

Take `CC[C@H](NC(=O)[C@H](C)NC)C(=O)N1C[C@@H](O)C[C@H]1Cc1c(-c2[nH]c3cc(F)ccc3c2C[C@@H]2C[C@H](O)CN2C(=O)[C@H](CC)NC(=O)[C@H](C)NC)[nH]c2cc(F)ccc12`: the ΔTm was -1.75 °C in assay [1] and 0.75 °C in assay [2].

As to `C[C@H](CCC(=O)O)[C@H]1CC[C@H]2[C@@H]3CC[C@@H]4C[C@H](O)CC[C@]4(C)[C@H]3C[C@H](O)[C@]12C`, the ΔTm in assay [1] is -1.82 °C; in assay [2], 0.63 °C.

In general, ΔTm refers to the shift of the melting midpoint relative to a reference.
